Test results reported in patent US6503449B1, “Process for the control of microbial contamination in water-based solids suspensions” (Ciba Specialty Chemicals Corporation, priority 1998, dated 2003).

System: mixture of Gram positive and Gram negative bacteria
Assay: Sonication of Pigment Red 23 dispersion of Example 2 with biocide, bacterial contamination check
Type: cell-based
Design: key: −: no bacterial colonies detected; +: light contamination (10^0 and 10^3 cfu/ml); ++: moderate contamination(10^3-10^5 cfu/ml); +++: heavy contamination(>10^5 cfu/ml)
Text: A mixture of Pigment Red 23, available from Ciba Specialty Chemicals(UK) Ltd., 215.5 parts, Emulan OG (RTM) (35% solution in water), available from BASF, 153.7 parts, tributyl phosphate, available from Albright & Wilson, 2 parts, and water, 128.8 parts, are dispersed by re-circulation through a Bachofen KDL200 bead-mill until colouristic properties are within specification of UNISPERSE (RTM) Red RBS-PI, available from Ciba Specialty Chemicals(UK) Ltd., and adjusted to pH 8.0-8.5 with 20% sodium hydroxide solution. This material is identified as containing the Gram negative bacterium, Pseudomonas putida. 50 millilitre aliquots of this dispersion containing levels of glutaraldehyde (pentane-1,5-dialdehyde), available as the trade product Protectol GDA form BASF or Ucarcide from Union Carbide, between 0 parts per million (ppm) and 2000 ppm are sonicated using a Branson MSE sonicator with a 19 mm horn probe resonating at 20 kHz with an amplitude of 6 microns. Sonication is undertaken in a 100 millilitre glass beaker, diameter 38 mm, with magnetic flea agitator and cooled in a water/ice bath to maintain temperature at 28-32° C. Bacterial growth in each sample is assessed at 5 minute intervals by streaking each dispersion on to Nutrient Agar(NA) plates and incubating the plates for a minimum of 48 hours at 30° C. The plates are then examined for bacterial colonies and expressed according to the following notation:
A mixture of Pigment Red 23,215.5 parts, Emulan OG (RTM) (35% solution in water), 153.7 parts, tributyl phosphate, 2 parts, and water, 128.8 parts are dispersed by re-circulation through a Bachofen KDL200 bead-mill until colouristic properties are within specification of UNISPERSE (RTM) Red RBS-PI as detailed in Example 1 and adjusted to pH 8.0-8.5 with 20% sodium hydroxide solution. This material is identified as having a bacterial count of 4.8×10^6 colony-forming units (cfu) per millilitre comprised of a mixture of Gram positive and Gram negative bacteria. It is treated with 250 parts per million(ppm) of pentane 1,5-dialdehyde and pumped through a 2406 Nearfield Accoustical Processor sonicating at 16 kHz and 20 kHz respectively with a plate separation of 6 mm (approximately) at a flow rate of 750 kg/hr. Assessment bacterial activity is then done by spreading a sample of the pigment dispersion on Nutrient Agar(NA) plates and incubating at 30° C. for 48 hours. […] The temperature rise is 1° C. per pass, from a starting value of 20° C.
The solids dispersion as defined in Example 2, containing the mixture of Gram positive and Gram negative bacteria, is treated separately with 200 ppm and 500 ppm of pentane-1,5-dialdeyde (Ucarcide 250 (RTM)), and with 200 ppm and 500 ppm of CIT/MIT mixture (Acticide LG (RTM)) and each sonicated for a period of 30 minutes according to the process defined in Example 1. Each sample is then checked for bacterial contamination over following 28 days.

`O=CCCCC=O` [glutaraldehyde, pentane-1,5-dialdehyde] was tested, and the bacterial contamination (Ucarcide 250 200 ppm, 1 days after sonication) was “−”, the bacterial contamination (Ucarcide 250 200 ppm, 2 days after sonication) was “−” and the bacterial contamination (Ucarcide 250 200 ppm, 7 days after sonication) was “−”. The bacterial contamination (Ucarcide 250 200 ppm, 14 days after sonication) was “−”, the bacterial contamination (Ucarcide 250 200 ppm, 28 days after sonication) was “−” and the bacterial contamination (Ucarcide 250 200 ppm, sonicated 0 mins.) was “+++ (heavy contamination(>10^5 cfu/ml))”. For the same compound, the bacterial contamination (Ucarcide 250 200 ppm, sonicated 5 mins.) was “++ (moderate contamination(10^3-10^5 cfu/ml))”, the bacterial contamination (Ucarcide 250 200 ppm, sonicated 10 mins.) was “−” and the bacterial contamination (Ucarcide 250 200 ppm, sonicated 15 mins.) was “−”. For the same compound, the bacterial contamination (Ucarcide 250 200 ppm, sonicated 20 mins.) was “−”, the bacterial contamination (Ucarcide 250 200 ppm, sonicated 25 mins.) was “−” and the bacterial contamination (Ucarcide 250 200 ppm, sonicated 30 mins.) was “−”. For the same compound, the bacterial contamination (Ucarcide 250 500 ppm, 1 days after sonication) was “−”, the bacterial contamination (Ucarcide 250 500 ppm, 2 days after sonication) was “−” and the bacterial contamination (Ucarcide 250 500 ppm, 7 days after sonication) was “−”. The bacterial contamination (Ucarcide 250 500 ppm, 14 days after sonication) was “−”, the bacterial contamination (Ucarcide 250 500 ppm, 28 days after sonication) was “−” and the bacterial contamination (Ucarcide 250 500 ppm, sonicated 0 mins.) was “+++ (heavy contamination(>10^5 cfu/ml))”. For the same compound, the bacterial contamination (Ucarcide 250 500 ppm, sonicated 5 mins.) was “−”, the bacterial contamination (Ucarcide 250 500 ppm, sonicated 10 mins.) was “−” and the bacterial contamination (Ucarcide 250 500 ppm, sonicated 15 mins.) was “−”. The bacterial contamination (Ucarcide 250 500 ppm, sonicated 20 mins.) was “−”, the bacterial contamination (Ucarcide 250 500 ppm, sonicated 25 mins.) was “−” and the bacterial contamination (Ucarcide 250 500 ppm, sonicated 30 mins.) was “−”.
